For eight compounds, GI50 and TGI results are on record in PubChem BioAssay (NCI).

Values joined by “and” are separate entries in the source; they are usually repeats but may differ in a detail not shown here. Equal entries are not always repeated.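 Briefly, cells in 96-well plates were exposed to five compound concentrations for 48 h, and endpoints were estimated by linear interpolation. GI50 = concentration required for 50% inhibition of growth. TGI: total growth inhibition.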 Where only a bound is given, the exact number is not on record here.

Among the test systems are SK-OV-3 ovarian; U251 CNS; HCT-15 colon; PC-3 prostate; T-47D breast; NCI/ADR-RES ovarian; A498 renal; HOP-62 NSCLC; OVCAR-4 ovarian; SK-MEL-28 melanoma.
Common to all, as to test: growth of human tumour cells (NCI), 48 h

For `CC(C)=CCNc1ncnc2c1ncn2C1OC(CO)C(O)C1O` (configuration not stated), the GI50 in the experiment with SK-OV-3 ovarian was 1.75 µM; with U251 CNS, 36.2 µM; in the experiment on HCT-15 colon, 1.05 µM; in the experiment with PC-3 prostate, 0.616 µM; with T-47D breast it was 0.983 µM; in the experiment with NCI/ADR-RES ovarian it was 1.5 µM. Also, the GI50 is 0.405 µM in the experiment on A498 renal, 1.3 µM in the experiment with HOP-62 NSCLC, 0.793 µM in the experiment on OVCAR-4 ovarian and more than 346 µM with SK-MEL-28 melanoma. Further, the TGI with SK-OV-3 ovarian is 33.5 µM; in the experiment on U251 CNS it was more than 1000 µM; in the experiment on HCT-15 colon it was 36.8 µM; with PC-3 prostate, 31 µM; in the experiment on T-47D breast it was 3.92 µM; in the experiment with NCI/ADR-RES ovarian it was 52.1 µM. In addition, the TGI was 1.51 µM in the experiment on A498 renal, 6.7 µM in the experiment with HOP-62 NSCLC, more than 1000 µM in the experiment with OVCAR-4 ovarian and more than 1000 µM in the experiment with SK-MEL-28 melanoma.

Take `C=C(c1nc2ccc(Cl)cc2[nH]c1=O)C(O)c1ccc(C(O)C(=O)c2nc3ccc(Cl)cc3[nH]c2=O)cc1` (configuration not stated): the TGI with SK-OV-3 ovarian, in the experiment with U251 CNS, in the experiment with HCT-15 colon, in the experiment with PC-3 prostate, in the experiment on T-47D breast and in the experiment on NCI/ADR-RES ovarian was more than 100 µM in each case. Besides, the TGI in the experiment with A498 renal, in the experiment with HOP-62 NSCLC, in the experiment with OVCAR-4 ovarian and in the experiment with SK-MEL-28 melanoma was more than 100 µM throughout.

On to `C=C(CNCc1ccccc1)c1ccc(C(=O)Nc2ccccc2N)cc1`, for which the GI50 with SK-OV-3 ovarian was 4.22 µM; in the experiment with U251 CNS, 9.86 µM; in the experiment with HCT-15 colon it was 36.5 µM; in the experiment on PC-3 prostate it was 18.5 µM; in the experiment with T-47D breast, 1.59 µM; with NCI/ADR-RES ovarian, 3.21 µM. Moreover, the GI50 in the experiment with A498 renal was 1.06 µM; with HOP-62 NSCLC, 4.57 µM; in the experiment with OVCAR-4 ovarian, 11.7 µM; in the experiment with SK-MEL-28 melanoma, 11.7 µM. In addition, the TGI in the experiment with SK-OV-3 ovarian was 22.8 µM; with U251 CNS, more than 100 µM; in the experiment on HCT-15 colon, more than 100 µM; in the experiment on PC-3 prostate, more than 100 µM; in the experiment on T-47D breast it was more than 100 µM; in the experiment on NCI/ADR-RES ovarian, 18.8 µM. The TGI in the experiment with A498 renal is 7.83 µM; in the experiment on HOP-62 NSCLC it was more than 100 µM; in the experiment with OVCAR-4 ovarian it was 68.1 µM; in the experiment on SK-MEL-28 melanoma it was more than 100 µM.

For the compound `COc1ccc(/C=C(/C(=O)N2CCN(c3ccccc3)CC2)c2cc(OC)c(OC)c(OC)c2)cc1O`, the GI50 with SK-OV-3 ovarian was 0.586 µM; with U251 CNS, 0.445 µM; with HCT-15 colon, 0.341 µM; in the experiment on PC-3 prostate it was 0.58 µM; in the experiment with T-47D breast, 51.3 µM; in the experiment on NCI/ADR-RES ovarian, 0.676 µM. The GI50 was 0.211 µM in the experiment on A498 renal, 0.55 µM with HOP-62 NSCLC, 2.7 µM with OVCAR-4 ovarian and 0.671 µM in the experiment with SK-MEL-28 melanoma. Also, the TGI in the experiment with SK-OV-3 ovarian, in the experiment on U251 CNS, in the experiment with HCT-15 colon, in the experiment on PC-3 prostate, with T-47D breast and in the experiment on NCI/ADR-RES ovarian was more than 100 µM in each case. Further, the TGI was 1.92 µM in the experiment on A498 renal, more than 100 µM with HOP-62 NSCLC, more than 100 µM in the experiment on OVCAR-4 ovarian and more than 100 µM in the experiment on SK-MEL-28 melanoma.

With `O=C1c2cccc(NCCCNCCO)c2C(=O)c2cccc(NCCCNCCO)c21`, the TGI is 7.23 µM in the experiment with SK-OV-3 ovarian; 2.13 µM and 4.46 µM in the experiment on U251 CNS; 19.8 µM and 23.3 µM in the experiment on HCT-15 colon; 5.84 µM in the experiment with PC-3 prostate; 8.89 µM in the experiment with T-47D breast; 28.6 µM in the experiment on NCI/ADR-RES ovarian. For the same compound, the TGI in the experiment with A498 renal is 4.66 µM and 7.58 µM; with HOP-62 NSCLC, 6.38 µM and 6.71 µM; with OVCAR-4 ovarian, 2.59 µM and 6.09 µM; with SK-MEL-28 melanoma, 3.99 µM and 3.84 µM. For the same compound, the GI50 in the experiment on U251 CNS is 0.536 µM and 1.4 µM; in the experiment with OVCAR-4 ovarian it was 0.747 µM and 2.55 µM.

In the case of `O=C(CNc1ccc(Cl)cc1)Nc1ccc(-c2nc3ccccc3s2)cc1`, the GI50 is 12 µM with SK-OV-3 ovarian; 5.24 µM with U251 CNS; 1.84 µM with HCT-15 colon; 1.85 µM with PC-3 prostate; 5.2 µM in the experiment on T-47D breast; 3.42 µM in the experiment with NCI/ADR-RES ovarian. Further, the GI50 in the experiment with A498 renal was 12.5 µM; in the experiment with HOP-62 NSCLC, 8.62 µM; in the experiment with OVCAR-4 ovarian it was 2.78 µM; in the experiment with SK-MEL-28 melanoma, 5.67 µM. Besides, the TGI with SK-OV-3 ovarian is more than 78.6 µM; in the experiment on U251 CNS, 10.8 µM; in the experiment on HCT-15 colon, 5.32 µM; with PC-3 prostate it was 4.41 µM; in the experiment with T-47D breast, 16.6 µM; in the experiment with NCI/ADR-RES ovarian, 11.4 µM. In addition, the TGI in the experiment on A498 renal is 25 µM; with HOP-62 NSCLC, 23.8 µM; in the experiment with OVCAR-4 ovarian it was 19.4 µM; in the experiment with SK-MEL-28 melanoma it was 11.6 µM.

Regarding `O=C1NC(=O)C(c2cnc3ccccn23)=C1c1cn2c3c(cc(F)cc13)CN(C(=O)N1CCCCC1)CC2`, the GI50 in the experiment with SK-OV-3 ovarian was 15.5 µM; in the experiment on U251 CNS, 1.89 µM; with HCT-15 colon it was 13.3 µM; with PC-3 prostate it was 4.17 µM; in the experiment with T-47D breast, 9.79 µM; in the experiment with NCI/ADR-RES ovarian it was 19.7 µM. Also, the GI50 in the experiment with A498 renal is 0.0108 µM; with HOP-62 NSCLC it was 15 µM; with OVCAR-4 ovarian, 1.5 µM; with SK-MEL-28 melanoma, 19.5 µM. The TGI in the experiment with SK-OV-3 ovarian is 71.9 µM; with U251 CNS, 24.3 µM; in the experiment with HCT-15 colon it was 66.9 µM; in the experiment with PC-3 prostate, 41.8 µM; in the experiment with T-47D breast, more than 69.2 µM; in the experiment on NCI/ADR-RES ovarian it was more than 100 µM. In addition, the TGI is 11.5 µM with A498 renal, 40.4 µM in the experiment with HOP-62 NSCLC, more than 63.4 µM in the experiment on OVCAR-4 ovarian and 45 µM with SK-MEL-28 melanoma.

For the compound `CCOC(=O)CCCn1c(SC)nc2[nH]cc(-c3ccccc3)c2c1=O`, the GI50 is 25.6 µM with SK-OV-3 ovarian; 16.8 µM in the experiment on U251 CNS; 27.1 µM with HCT-15 colon; 13.8 µM in the experiment on PC-3 prostate; 18.2 µM with T-47D breast; 18.9 µM in the experiment on NCI/ADR-RES ovarian. For the same compound, the GI50 in the experiment on A498 renal was 16.5 µM; in the experiment with HOP-62 NSCLC it was 11 µM; with OVCAR-4 ovarian, 31.4 µM; in the experiment with SK-MEL-28 melanoma, 17.6 µM. The TGI with SK-OV-3 ovarian was 93.6 µM; in the experiment on U251 CNS, 58.5 µM; with HCT-15 colon, more than 100 µM; in the experiment with PC-3 prostate, 35.8 µM; with T-47D breast it was 61.4 µM; in the experiment on NCI/ADR-RES ovarian it was 53.1 µM. The TGI in the experiment with A498 renal is 63.3 µM; in the experiment with HOP-62 NSCLC, 40.4 µM; in the experiment on OVCAR-4 ovarian it was 80.8 µM; in the experiment on SK-MEL-28 melanoma it was 37.1 µM.
